Biological target: T1, hACMSD (Homo sapiens, UniProt Q8TDX5)
T1 construct: made in house; host or cells: Pichia pastoris
Test: Determination of ACMSD1 inhibition (spectrophotometrical in vitro assay)
Type: biochemical
Details: HAA concentration of 10 μM, 25° C.
Experimental: The activity of compounds as inhibitors of ACMSD1 is determined in a spectrophotometrical in vitro assay. The pre-assay mixture is incubated and a compound of Formula (I), Formula (Ia), Formula (Ib), Formula (Ic), Formula (Id), Formula (Ie), Formula (If), Formula (Ig), Formula (Ih), Formula (Ii), Formula (Ij), Formula (II), Formula (IIa), Formula (IIb), Formula (IIc), Formula (IId), Formula (IIe), Formula (IIf), Formula (IIg), Formula (IIh), Formula (IIi), Formula (IIj), Formula (IIk), and Formula (IIl), or a pharmaceutically acceptable salt thereof, and ACMSD1 solution is then added. The effect of ACMS concentration on the enzyme activity is investigated by varying 3-hydroxyanthranilic acid (30H-HA) concentration in the pre-assay mixture. Kinetic parameters are calculated from the initial velocity data using a Lineweaver-Burk plot.
The inhibition activity of ACMSD1 of compounds disclosed herein was determined by measuring the conversion of 30H-Anthranilic Acid into product (i.e., ACMS) in a spectrophotometrical in vitro assay.
The pre-assay mixture consisting of 3-hydroxyanthranilic acid (30H-HA), 3-hydroxyanthranilic acid, 3,4-diOxygenase (HAO), and a dialyzed crude extract of E. coli BL21 (DE3) cells expressing the recombinant enzyme, was incubated at 25° C. with monitoring of the increase in absorbance at 360 nm due to the formation of ACMS from 30H-HA. After the reaction was completed within 2 mins, an aliquot of ACMSD1 solution (prepared and purified from Pichia Pastoris overexpressing the recombinant enzyme) was added, and the decrease in absorbance at 360 nm was followed at 15 second intervals. The effect of ACMS concentration on the enzyme activity was investigated by varying 30H-HA concentration from 2 to 20 µM. Kinetic parameters were calculated from the initial velocity data by using the Lineweaver-Burk plot.
The rate of the decrease in absorbance caused by ACMSD1 was calculated by subtracting that of the control reaction mixture without ACMSD from that described above. One unit of ACMSD activity was indicated as the amount of enzyme that converts 1 mmol of ACMS per minute at 25° C. The absence or a reduction of ACMSD1 activity (e.g., by using ACMSD inhibitors) results in a slow ACMS-spontaneous degradation (i.e., cyclization to form quinolic acid).
The enzymatic activity was determined at a HAA concentration of 10 μM in the presence of the compounds in Table 1 below. The compounds were tested at the concentration of about […] and 10 μM and the IC50 was calculated for compounds showing inhibitory activity higher than 500.

T1 sequence (Q8TDX5 whole entry): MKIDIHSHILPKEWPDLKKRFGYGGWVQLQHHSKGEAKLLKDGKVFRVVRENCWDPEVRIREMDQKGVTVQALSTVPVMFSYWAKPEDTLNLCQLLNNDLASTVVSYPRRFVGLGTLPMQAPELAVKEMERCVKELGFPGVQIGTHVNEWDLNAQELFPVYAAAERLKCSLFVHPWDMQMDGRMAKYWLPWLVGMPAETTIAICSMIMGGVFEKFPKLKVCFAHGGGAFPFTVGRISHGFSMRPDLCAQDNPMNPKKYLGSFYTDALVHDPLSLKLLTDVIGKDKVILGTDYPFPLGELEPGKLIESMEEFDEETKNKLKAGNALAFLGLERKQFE

IC50	Compound
100 to 1000 nM	COc1cccc(/C=C/c2[nH]c(=O)[nH]c(=O)c2C#N)c1OCC(=O)O [I-2, (E)-2-(2-(2-(5-cyano-2,6-dioxo-1,2,3,6-tetrahydropyrimidin-4-yl)vinyl)-6-methoxyphenoxy)acetic acid]
1000 to 2000 nM	N#Cc1c(/C=C/c2cccc(OCC(=O)O)c2)[nH]c(=O)[nH]c1=O [I-3, (E)-2-(3-(2-(5-cyano-2,6-dioxo-1,2,3,6-tetrahydropyrimidin-4-yl)vinyl)phenoxy)acetic acid]
100 to 1000 nM	N#Cc1c(/C=C/c2ccccc2-c2cc(F)c(O)c(F)c2)[nH]c(=O)[nH]c1=O [I-4, (E)-6-(2-(3′,5′-difluoro-4′-hydroxy-[1,1′-biphenyl]-2-yl)vinyl)-2,4-dioxo-1,2,3,4-tetrahydropyrimidine-5-carbonitrile]
100 to 1000 nM	N#Cc1c(/C=C/c2ccccc2OCC(=O)O)[nH]c(=S)[nH]c1=O [I-6, (E)-2-(2-(2-(5-cyano-6-oxo-2-thioxo-1,2,3,6-tetrahydropyrimidin-4-yl)vinyl)phenoxy)acetic acid]
100 to 1000 nM	COc1cccc(/C=C/c2[nH]c(=S)[nH]c(=O)c2C#N)c1OC(C)(C)C(=O)O [I-8, (E)-2-(2-(2-(5-cyano-6-oxo-2-thioxo-1,2,3,6-tetrahydropyrimidin-4-yl)vinyl)-6-methoxyphenoxy)-2-methylpropanoic acid]
100 to 1000 nM	COc1cccc(/C=C/c2[nH]c(=S)[nH]c(=O)c2C#N)c1OC(C)C(=O)O (stereo not shown) [I-9, (E)-2-(2-(2-(5-cyano-6-oxo-2-thioxo-1,2,3,6-tetrahydropyrimidin-4-yl)vinyl)-6-methoxyphenoxy)propanoic acid]
100 to 1000 nM	COc1cccc(/C=C/c2[nH]c(=S)[nH]c(=O)c2C#N)c1 [I-10, (E)-6-(3-methoxystyryl)-4-oxo-2-thioxo-1,2,3,4-tetrahydropyrimidine-5-carbonitrile]
100 to 1000 nM	COc1cccc(/C=C/c2nc(SC)[nH]c(=O)c2C#N)c1OCC(=O)O [I-15, (E)-2-(2-(2-(5-cyano-2-(methylthio)-6-oxo-1,6-dihydropyrimidin-4-yl)vinyl)-6-methoxyphenoxy)acetic acid]
100 to 1000 nM	N#Cc1c(-c2cccc(-c3cccc(C(=O)O)c3)c2)[nH]c(=S)[nH]c1=O [I-16, 3′-(5-cyano-6-oxo-2-thioxo-1,2,3,6-tetrahydropyrimidin-4-yl)-[1,1′-biphenyl]-3-carboxylic acid]
1000 to 2000 nM	CCOc1cc(/C=C/c2[nH]c(=O)[nH]c(=O)c2[N+](=O)[O-])ccc1OCC(=O)O [I-17, (E)-2-(2-ethoxy-4-(2-(5-nitro-2,6-dioxo-1,2,3,6-tetrahydropyrimidin-4-yl)vinyl)henoxy)acetic acid]

From patent US20210230123A1, “INHIBITORS OF ALPHA-AMINO-BETA-CARBOXYMUCONIC ACID SEMIALDEHYDE DECARBOXYLASE” (TES Pharma S.r.l., priority 2016, published 2021)
